pIC50: −log10 of the molar value.
Experiments:
[1] = molecular target: SNAP-hSPR (sepiapterin reductase, SPR) (Homo sapiens, UniProt P35270); test: biochemical; type: binding; settings: terbium labelled SNAP-hSPR / SSZ labelled SNAP-EGFP; read-out: hTR-FRET IC50
[2] = test system: BH4 production in human peripheral blood mononuclear cells (PBMCs); test: hPBMC assay, inhibition of BH4 production by LC-MS (anti-CD3/anti-CD28 stimulated); type: cell-based; settings: PBMC, read-out: hPBMC IC50
Method: hPBMC Assay: PBMCs were either purchased or isolated from fresh human blood and used either as a fresh preparation or frozen for later use. The assay system was prepared by pre-treating the assay plates overnight with a solution containing anti-human CD3 antibody. Human PBMCs were suspended in assay medium and plated into the assay plates at a density of 1-4×10^5 cells per well. The desired concentration of the test compound was added to each well. A solution of human anti-CD28 antibody was also added to each well. Plates were incubated for 12-48 hours at 37° C. and 5% CO2. Assay plates were centrifuged for 5-15 minutes at 1-3000 RMP and supernatants were removed. The cells were lysed, sealed and used directly or frozen at −80° C. LC-MS was used to quantify the amount of inhibition of BH4 production.
PBMCs were either purchased or isolated from fresh human blood and used either as a fresh preparation or frozen for later use. The assay system was prepared by pre-treating the assay plates overnight with a solution containing anti-human CD3 antibody. Human PBMCs were suspended in assay medium and plated into the assay plates at a density of 1-4×10^5 cells per well. The desired concentration of the test compound was added to each well. A solution of human anti-CD28 antibody was also added to each well. Plates are incubated for 12-48 hours at 37° C. and 5% CO2. Assay plates were centrifuged for 5-15 minutes at 1-3000 RMP and supernatants were removed. The cells were lysed, sealed and used directly or frozen at −80° C.

Chain of SNAP-hSPR (sepiapterin reductase, SPR) (P35270 whole entry): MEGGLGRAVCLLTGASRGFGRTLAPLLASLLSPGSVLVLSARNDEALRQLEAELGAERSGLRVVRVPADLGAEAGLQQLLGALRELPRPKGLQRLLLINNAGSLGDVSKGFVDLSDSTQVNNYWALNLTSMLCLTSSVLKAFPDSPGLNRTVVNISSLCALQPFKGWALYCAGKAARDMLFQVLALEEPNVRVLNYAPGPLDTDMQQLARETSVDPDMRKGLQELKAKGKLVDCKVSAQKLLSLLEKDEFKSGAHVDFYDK

SMILES: Cc1c(C(=O)N2CCN(C3CCC3(F)F)CC2)cnn1-c1nn2cccc2c(=O)[nH]1 (stereo not shown) [Q-1120]
- pIC50 [1]: 9.00
- pIC50 [2]: 7.01

SMILES: Cc1c(C(=O)N2CC(c3cccc(F)n3)C2)cnn1-c1nn2cccc2c(=O)[nH]1 [Q-1121]
- pIC50 [1]: 9.00
- pIC50 [2]: 7.15

SMILES: Cc1c(C(=O)N2C3CCC2CC(C(F)(F)F)C3)cnn1-c1nn2cccc2c(=O)[nH]1 (stereo not shown) [Q-1122]
- pIC50 [1]: 9.00
- pIC50 [2]: 7.60

SMILES: Cc1c(C(=O)N2CC3CCCC(C2)C3C(F)(F)F)cnn1-c1nn2cccc2c(=O)[nH]1 (stereo not shown) [Q-1123]
- pIC50 [1]: 9.00
- pIC50 [2]: 7.24

SMILES: Cc1c(C(=O)N2CCCC(C(F)(F)F)CC2)cnn1-c1nn2cccc2c(=O)[nH]1 (stereo not shown) [Q-1124]
- pIC50 [1]: 9.00
- pIC50 [2]: 7.46

SMILES: Cc1nn(-c2nn3cccc3c(=O)[nH]2)cc1C(=O)N1CCN(CC(F)(F)F)CC1 [Q-1125]
- pIC50 [1]: 8.22
- pIC50 [2]: 7.00

SMILES: C=C1C2CCCC1CN(C(=O)c1cnn(-c3nn4cccc4c(=O)[nH]3)c1C)C2 [Q-1126]
- pIC50 [1]: 9.00
- pIC50 [2]: 7.32

SMILES: Cc1c(C(=O)N2CC(c3ccc(F)cn3)C2)cnn1-c1nn2cccc2c(=O)[nH]1 [Q-1128]
- pIC50 [1]: 8.70
- pIC50 [2]: 7.32

SMILES: Cc1c(C(=O)N2CC(c3cncc(F)c3)C2)cnn1-c1nn2cccc2c(=O)[nH]1 [Q-1129]
- pIC50 [1]: 8.70
- pIC50 [2]: 7.30

SMILES: Cc1c(C(=O)N2CC3CCC(C2)C3C(F)(F)F)cnn1-c1nn2cccc2c(=O)[nH]1 (stereo not shown) [Q-1130]
- pIC50 [1]: 9.00
- pIC50 [2]: 7.24

SMILES: Cc1c(C(=O)N2CCC(C(C(F)F)C(F)(F)F)CC2)cnn1-c1nn2cccc2c(=O)[nH]1 (stereo not shown) [Q-1131]
- pIC50 [1]: 9.00
- pIC50 [2]: 7.57

SMILES: CCC1(C(F)(F)F)CCN(C(=O)c2cnn(-c3nn4cccc4c(=O)[nH]3)c2C)CC1 [Q-1132]
- pIC50 [1]: 9.00
- pIC50 [2]: 7.40

SMILES: Cc1c(C(=O)N2CCN(c3nc(C(F)(F)F)cs3)CC2)cnn1-c1nn2cccc2c(=O)[nH]1 [Q-1134]
- pIC50 [1]: 8.52
- pIC50 [2]: 7.60

SMILES: Cc1c(C(=O)N2CCN(c3ncc(-c4ccc(Cl)cc4)o3)CC2)cnn1-c1nn2cccc2c(=O)[nH]1 [Q-1135]
- pIC50 [1]: 8.00
- pIC50 [2]: 7.35

SMILES: Cc1c(C(=O)N2CCC(c3nc(-c4ccncc4)cs3)CC2)cnn1-c1nc2c(c(=O)[nH]1)CCC2 [Q-1136]
- pIC50 [1]: 8.70
- pIC50 [2]: 7.85

SMILES: Cc1c(C(=O)N2CCN(c3nc(C(F)(F)F)co3)CC2)cnn1-c1nn2cccc2c(=O)[nH]1 [Q-1137]
- pIC50 [1]: 8.52
- pIC50 [2]: 6.80

SMILES: Cc1c(C(=O)N2CCN(c3nc(-c4ccc(Cl)cc4)cs3)CC2)cnn1-c1nn2cccc2c(=O)[nH]1 [Q-1138]
- pIC50 [1]: 7.70
- pIC50 [2]: 6.44

SMILES: Cc1c(C(=O)N2CCN(c3nc(-c4ccc(C(F)(F)F)cc4)cs3)CC2)cnn1-c1nn2cccc2c(=O)[nH]1 [Q-1139]
- pIC50 [1]: 7.70
- pIC50 [2]: 6.38

SMILES: Cc1c(C(=O)N2CCN(c3nnc(-c4ccc(Cl)cc4)o3)CC2)cnn1-c1nn2cccc2c(=O)[nH]1 [Q-1140]
- pIC50 [1]: 8.10
- pIC50 [2]: 6.64

SMILES: Cc1c(C(=O)N2CCC(C(CCF)C(F)(F)F)CC2)cnn1-c1nn2cccc2c(=O)[nH]1 (stereo not shown) [Q-1141]
- pIC50 [1]: 9.00
- pIC50 [2]: 7.72

SMILES: Cc1c(C(=O)Nc2c(C(C)(O)C(F)(F)F)cnn2C(C)C)cnn1-c1nn2cccc2c(=O)[nH]1 (stereo not shown) [Q-1142]
- pIC50 [1]: 9.00
- pIC50 [2]: 7.12

SMILES: C=C(c1cnn(C(C)C)c1NC(=O)c1cnn(-c2nn3cccc3c(=O)[nH]2)c1C)C(F)(F)F [Q-1143]
- pIC50 [1]: 8.52
- pIC50 [2]: 6.51

SMILES: Cc1c(C(=O)N2CC(c3ccc(F)nc3)C2)cnn1-c1nn2cccc2c(=O)[nH]1 [Q-1144]
- pIC50 [1]: 9.00
- pIC50 [2]: 7.15

SMILES: Cc1c(C(=O)N2CCN(c3nnc(C(F)(F)F)o3)CC2)cnn1-c1nn2cccc2c(=O)[nH]1 [Q-1145]
- pIC50 [1]: 8.52
- pIC50 [2]: 6.72

SMILES: Cc1c(C(=O)N2CCc3nc(-c4ccc(Cl)cc4)sc3C2)cnn1-c1nn2cccc2c(=O)[nH]1 [Q-1146]
- pIC50 [1]: 8.30
- pIC50 [2]: 6.42

SMILES: Cc1c(C(=O)N2CCc3nc(-c4ccccc4Cl)sc3C2)cnn1-c1nn2cccc2c(=O)[nH]1 [Q-1147]
- pIC50 [1]: 8.15
- pIC50 [2]: 6.28

SMILES: Cc1c(C(=O)N2CCc3nc(-c4ccc(C(F)(F)F)cc4)sc3C2)cnn1-c1nn2cccc2c(=O)[nH]1 [Q-1148]
- pIC50 [1]: 8.00
- pIC50 [2]: 6.27

SMILES: Cc1c(C(=O)N2CCN(c3ncc(-c4ccccc4F)o3)CC2)cnn1-c1nn2cccc2c(=O)[nH]1 [Q-1149]
- pIC50 [1]: 8.30
- pIC50 [2]: 6.68

SMILES: Cc1c(C(=O)N2CCN(c3ncc(-c4ccccc4Cl)o3)CC2)cnn1-c1nn2cccc2c(=O)[nH]1 [Q-1151]
- pIC50 [1]: 8.10
- pIC50 [2]: 6.51

SMILES: Cc1c(C(=O)N2CCN(c3nc(-c4ccccc4Cl)cs3)CC2)cnn1-c1nn2cccc2c(=O)[nH]1 [Q-1152]
- pIC50 [1]: 8.10
- pIC50 [2]: 6.42

SMILES: Cc1c(C(=O)N2CCN(c3nc(-c4ccccc4C(F)(F)F)cs3)CC2)cnn1-c1nn2cccc2c(=O)[nH]1 [Q-1153]
- pIC50 [1]: 8.10
- pIC50 [2]: 6.20

SMILES: Cc1c(C(=O)N2CCN(c3nnc(-c4cccc(Cl)c4)o3)CC2)cnn1-c1nn2cccc2c(=O)[nH]1 [Q-1154]
- pIC50 [1]: 8.30
- pIC50 [2]: 6.46

SMILES: Cc1c(C(=O)N2CCN(c3nc(-c4cccc(Cl)c4)cs3)CC2)cnn1-c1nn2cccc2c(=O)[nH]1 [Q-1155]
- pIC50 [1]: 8.00
- pIC50 [2]: 6.57

SMILES: Cc1c(C(=O)N2CCN(c3nc(-c4cccc(F)c4)cs3)CC2)cnn1-c1nn2cccc2c(=O)[nH]1 [Q-1156]
- pIC50 [1]: 8.22
- pIC50 [2]: 6.96

SMILES: Cc1c(C(=O)N2CCN(c3ncc(-c4cccc(F)c4)o3)CC2)cnn1-c1nn2cccc2c(=O)[nH]1 [Q-1157]
- pIC50 [1]: 8.40
- pIC50 [2]: 6.31

SMILES: Cc1c(C(=O)N2CCc3nc(-c4ccccn4)sc3C2)cnn1-c1nn2cccc2c(=O)[nH]1 [Q-1158]
- pIC50 [1]: 8.70
- pIC50 [2]: 6.89

SMILES: Cc1c(C(=O)N2CCN(c3ncc(-c4cccc(C(F)(F)F)c4)o3)CC2)cnn1-c1nn2cccc2c(=O)[nH]1 [Q-1159]
- pIC50 [1]: 7.70
- pIC50 [2]: 6.22

SMILES: Cc1c(C(=O)N2CCc3nc(-c4ccc(F)cc4)sc3C2)cnn1-c1nn2cccc2c(=O)[nH]1 [Q-1160]
- pIC50 [1]: 8.52
- pIC50 [2]: 6.96

SMILES: Cc1c(C(=O)N2CCN(c3ncc(-c4ccncc4)o3)CC2)cnn1-c1nn2cccc2c(=O)[nH]1 [Q-1161]
- pIC50 [1]: 8.52
- pIC50 [2]: 6.51

SMILES: Cc1c(C(=O)N2CCN(c3ncc(-c4cccnc4)o3)CC2)cnn1-c1nn2cccc2c(=O)[nH]1 [Q-1162]
- pIC50 [1]: 9.00
- pIC50 [2]: 7.02

SMILES: Cc1c(C(=O)N2CCN(c3nc(-c4ccnc(Cl)c4)cs3)CC2)cnn1-c1nn2cccc2c(=O)[nH]1 [Q-1163]
- pIC50 [1]: 8.70
- pIC50 [2]: 7.17

SMILES: Cc1c(C(=O)N2CCN(c3nc(-c4cccnc4)cs3)CC2)cnn1-c1nn2cccc2c(=O)[nH]1 [Q-1164]
- pIC50 [1]: 9.00
- pIC50 [2]: 7.43

SMILES: Cc1c(C(=O)N2CCN(c3nc(-c4ccccc4F)cs3)CC2)cnn1-c1nn2cccc2c(=O)[nH]1 [Q-1165]
- pIC50 [1]: 8.22
- pIC50 [2]: 6.72

SMILES: Cc1c(C(=O)N2CCc3nc(-c4cccc(Cl)c4)sc3C2)cnn1-c1nn2cccc2c(=O)[nH]1 [Q-1166]
- pIC50 [1]: 8.30
- pIC50 [2]: 7.70

SMILES: Cc1c(C(=O)N2CCc3nc(-c4cccc(C(F)(F)F)c4)sc3C2)cnn1-c1nn2cccc2c(=O)[nH]1 [Q-1167]
- pIC50 [1]: 8.00
- pIC50 [2]: 7.09

SMILES: Cc1c(C(=O)N2CC3CC(C2)N3C2CCC2)cnn1-c1nn2cccc2c(=O)[nH]1 [Q-1168]
- pIC50 [1]: 8.52
- pIC50 [2]: 7.24

SMILES: Cc1c(C(=O)N2CC3CC(C2)N3C(=O)OC(C)(C)C)cnn1-c1nn2cccc2c(=O)[nH]1 [Q-1170]
- pIC50 [1]: 9.00
- pIC50 [2]: 6.80
